Structures can show the parent of a compound that is named as a salt.
What was measured:
[1] = molecular target: Histamine Receptor H2 (HRH2) (Homo sapiens, UniProt P25021); assay: cAMP assay, HRH2; assay type: cell-based
[2] = molecular target: Arginine Vasopressin Receptor 1A (AVPR1A) (Homo sapiens, UniProt P37288); assay: Calcium flux assay, AVPR1A; assay type: cell-based
[3] = molecular target: T1, Nuclear Hormone Androgen Receptor (AR) (Homo sapiens, UniProt P10275); assay: NHR Nuclear Translocation assay, AR; assay type: cell-based
T1 sequence (P10275 1-920): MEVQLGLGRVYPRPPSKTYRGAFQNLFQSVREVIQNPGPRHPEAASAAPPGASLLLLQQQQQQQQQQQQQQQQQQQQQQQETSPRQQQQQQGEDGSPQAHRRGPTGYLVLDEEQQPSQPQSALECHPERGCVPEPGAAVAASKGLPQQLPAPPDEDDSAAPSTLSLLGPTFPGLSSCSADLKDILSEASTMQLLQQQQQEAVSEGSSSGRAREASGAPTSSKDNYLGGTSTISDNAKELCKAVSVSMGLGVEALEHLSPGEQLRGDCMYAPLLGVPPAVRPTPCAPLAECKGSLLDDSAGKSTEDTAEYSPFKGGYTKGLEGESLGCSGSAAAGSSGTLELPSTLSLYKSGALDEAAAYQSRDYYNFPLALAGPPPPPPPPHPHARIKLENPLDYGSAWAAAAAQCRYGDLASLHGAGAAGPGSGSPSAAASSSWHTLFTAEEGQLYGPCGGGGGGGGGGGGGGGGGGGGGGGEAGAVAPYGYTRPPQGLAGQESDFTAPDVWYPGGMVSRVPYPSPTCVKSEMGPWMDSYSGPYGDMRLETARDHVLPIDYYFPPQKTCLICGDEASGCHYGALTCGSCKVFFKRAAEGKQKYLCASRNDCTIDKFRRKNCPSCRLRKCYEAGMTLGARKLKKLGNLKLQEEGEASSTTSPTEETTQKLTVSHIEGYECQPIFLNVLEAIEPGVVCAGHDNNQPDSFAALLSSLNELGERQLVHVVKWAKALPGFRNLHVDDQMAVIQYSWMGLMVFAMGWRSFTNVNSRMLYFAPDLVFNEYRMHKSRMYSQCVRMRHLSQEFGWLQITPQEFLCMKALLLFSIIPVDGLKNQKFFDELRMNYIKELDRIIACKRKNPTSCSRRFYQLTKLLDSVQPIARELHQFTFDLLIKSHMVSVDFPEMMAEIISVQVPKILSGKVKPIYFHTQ

[4] = molecular target: Histamine Receptor H1 (HRH1) (Homo sapiens, UniProt P35367); assay: cell-based
Chain of Histamine Receptor H1 (HRH1) (P35367 whole entry): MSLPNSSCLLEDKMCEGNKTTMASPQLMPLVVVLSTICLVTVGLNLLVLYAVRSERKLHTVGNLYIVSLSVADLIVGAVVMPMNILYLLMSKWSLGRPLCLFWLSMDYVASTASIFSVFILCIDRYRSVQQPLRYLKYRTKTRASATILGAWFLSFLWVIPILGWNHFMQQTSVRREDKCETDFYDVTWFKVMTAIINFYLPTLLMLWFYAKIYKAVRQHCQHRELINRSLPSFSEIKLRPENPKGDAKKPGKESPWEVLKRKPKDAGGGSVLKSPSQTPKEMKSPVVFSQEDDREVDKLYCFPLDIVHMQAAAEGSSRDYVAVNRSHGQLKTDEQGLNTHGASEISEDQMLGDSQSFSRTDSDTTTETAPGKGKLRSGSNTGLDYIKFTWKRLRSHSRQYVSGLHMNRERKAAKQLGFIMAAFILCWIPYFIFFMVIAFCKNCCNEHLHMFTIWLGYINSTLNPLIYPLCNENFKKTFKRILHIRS

[5] = molecular target: Adenosine Receptor A2A (ADORA2A) (Homo sapiens, UniProt P29274); assay: Calcium flux assay, ADORA2A; assay type: cell-based
Chain of Adenosine Receptor A2A (ADORA2A) (P29274 whole entry): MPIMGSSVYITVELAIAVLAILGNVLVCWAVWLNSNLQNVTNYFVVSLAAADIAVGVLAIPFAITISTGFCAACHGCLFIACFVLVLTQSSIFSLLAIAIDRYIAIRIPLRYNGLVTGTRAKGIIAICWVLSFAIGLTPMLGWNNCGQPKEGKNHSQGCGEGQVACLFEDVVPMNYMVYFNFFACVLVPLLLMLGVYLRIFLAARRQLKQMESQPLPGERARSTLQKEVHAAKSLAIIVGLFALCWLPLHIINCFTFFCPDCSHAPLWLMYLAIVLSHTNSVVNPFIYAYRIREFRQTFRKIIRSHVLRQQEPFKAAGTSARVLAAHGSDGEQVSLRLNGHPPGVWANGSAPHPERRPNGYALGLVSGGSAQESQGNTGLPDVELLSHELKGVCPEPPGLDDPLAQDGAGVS

[6] = molecular target: T2, 5-Hydroxytryptamine (Serotonin) Receptor 3A (5-HT3A) (Homo sapiens, UniProt P46098); assay: Ion channel assay, 5-HT3A; assay type: cell-based
T2 sequence (P46098 24-478): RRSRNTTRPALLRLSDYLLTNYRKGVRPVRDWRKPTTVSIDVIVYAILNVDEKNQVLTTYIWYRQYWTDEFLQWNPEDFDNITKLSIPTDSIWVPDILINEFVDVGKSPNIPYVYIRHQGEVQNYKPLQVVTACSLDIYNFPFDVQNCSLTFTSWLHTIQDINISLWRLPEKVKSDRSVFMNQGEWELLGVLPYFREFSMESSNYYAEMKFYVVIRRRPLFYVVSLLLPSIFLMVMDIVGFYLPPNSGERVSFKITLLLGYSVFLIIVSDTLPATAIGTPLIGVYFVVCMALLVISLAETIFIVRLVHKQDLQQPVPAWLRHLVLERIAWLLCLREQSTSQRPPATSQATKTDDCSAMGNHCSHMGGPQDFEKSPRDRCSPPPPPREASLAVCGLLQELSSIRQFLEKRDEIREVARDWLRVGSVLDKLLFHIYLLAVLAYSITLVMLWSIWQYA

Cyclooxygenase 2 (COX2) = molecular target: T3, Cyclooxygenase 2 (COX2) (Homo sapiens, UniProt P35354); assay: Enzymatic assay, COX2; assay type: biochemical
T3 construct: purchased BPS Bioscience
T3 sequence (P35354 18-604): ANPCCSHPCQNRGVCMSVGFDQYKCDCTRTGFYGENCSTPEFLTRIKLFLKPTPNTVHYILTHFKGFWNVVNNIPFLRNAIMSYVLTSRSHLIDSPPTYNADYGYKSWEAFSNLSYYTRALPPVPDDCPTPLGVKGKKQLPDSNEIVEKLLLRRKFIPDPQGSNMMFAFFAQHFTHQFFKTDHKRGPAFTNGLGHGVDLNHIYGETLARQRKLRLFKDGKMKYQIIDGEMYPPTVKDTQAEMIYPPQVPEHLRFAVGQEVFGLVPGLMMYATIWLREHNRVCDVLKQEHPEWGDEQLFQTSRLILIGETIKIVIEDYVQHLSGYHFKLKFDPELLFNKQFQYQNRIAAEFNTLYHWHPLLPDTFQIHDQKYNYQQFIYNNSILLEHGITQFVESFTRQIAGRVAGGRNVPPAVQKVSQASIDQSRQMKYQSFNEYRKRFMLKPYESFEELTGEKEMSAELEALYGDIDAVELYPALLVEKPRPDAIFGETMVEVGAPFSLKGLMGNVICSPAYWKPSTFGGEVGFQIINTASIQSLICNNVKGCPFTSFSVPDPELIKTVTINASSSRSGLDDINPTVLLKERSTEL

[7] = molecular target: T4, 5-Hydroxytryptamine (Serotonin) Receptor 1A (5-HT1A) (Homo sapiens, UniProt P08908); assay: cAMP secondary messenger assay, 5-HT1A; assay type: cell-based
T4 sequence (P08908 1-422): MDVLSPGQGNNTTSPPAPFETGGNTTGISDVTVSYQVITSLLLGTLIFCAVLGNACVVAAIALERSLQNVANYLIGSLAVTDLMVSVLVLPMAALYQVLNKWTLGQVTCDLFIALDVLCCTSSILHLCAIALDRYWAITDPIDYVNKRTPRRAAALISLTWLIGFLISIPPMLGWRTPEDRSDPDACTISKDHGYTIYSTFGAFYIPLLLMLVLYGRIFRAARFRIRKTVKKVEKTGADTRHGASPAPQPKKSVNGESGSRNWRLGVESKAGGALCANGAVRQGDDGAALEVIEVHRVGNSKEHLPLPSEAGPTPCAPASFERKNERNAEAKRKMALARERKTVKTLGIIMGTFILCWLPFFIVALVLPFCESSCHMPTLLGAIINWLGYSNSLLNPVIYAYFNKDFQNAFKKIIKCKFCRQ

Cyclooxygenase 1 (COX1) = molecular target: T5, Cyclooxygenase 1 (COX1) (Homo sapiens, UniProt P23219); assay: Enzymatic assay, COX1; assay type: biochemical
T5 construct: purchased BPS Bioscience
T5 sequence (P23219 24-599): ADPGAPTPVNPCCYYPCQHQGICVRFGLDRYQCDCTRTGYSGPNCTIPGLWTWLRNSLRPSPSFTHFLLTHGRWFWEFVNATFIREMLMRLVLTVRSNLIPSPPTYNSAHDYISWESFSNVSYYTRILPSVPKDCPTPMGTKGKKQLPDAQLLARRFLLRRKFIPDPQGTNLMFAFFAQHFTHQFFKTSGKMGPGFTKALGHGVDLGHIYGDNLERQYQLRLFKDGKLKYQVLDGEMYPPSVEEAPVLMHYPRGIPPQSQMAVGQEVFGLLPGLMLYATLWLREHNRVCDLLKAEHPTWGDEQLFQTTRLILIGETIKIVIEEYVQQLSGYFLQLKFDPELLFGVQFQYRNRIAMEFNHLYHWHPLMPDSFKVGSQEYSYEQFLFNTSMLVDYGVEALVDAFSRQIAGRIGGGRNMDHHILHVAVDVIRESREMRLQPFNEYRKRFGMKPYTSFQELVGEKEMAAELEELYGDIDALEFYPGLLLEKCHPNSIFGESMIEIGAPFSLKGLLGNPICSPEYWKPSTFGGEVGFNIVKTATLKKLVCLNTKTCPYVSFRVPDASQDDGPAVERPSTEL

Chain of Arginine Vasopressin Receptor 1A (AVPR1A) (P37288 whole entry): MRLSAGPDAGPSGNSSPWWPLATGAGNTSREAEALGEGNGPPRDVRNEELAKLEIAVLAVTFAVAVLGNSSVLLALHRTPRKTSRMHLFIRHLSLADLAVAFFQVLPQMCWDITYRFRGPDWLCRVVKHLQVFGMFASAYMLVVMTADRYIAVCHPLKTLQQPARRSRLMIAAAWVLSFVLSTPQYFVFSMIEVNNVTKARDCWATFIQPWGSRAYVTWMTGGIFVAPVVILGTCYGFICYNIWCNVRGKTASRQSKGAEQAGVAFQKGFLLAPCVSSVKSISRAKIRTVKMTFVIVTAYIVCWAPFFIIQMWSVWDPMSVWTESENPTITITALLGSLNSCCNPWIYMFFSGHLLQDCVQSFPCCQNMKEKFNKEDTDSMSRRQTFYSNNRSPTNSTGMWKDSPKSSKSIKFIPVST
Chain of Histamine Receptor H2 (HRH2) (P25021 whole entry): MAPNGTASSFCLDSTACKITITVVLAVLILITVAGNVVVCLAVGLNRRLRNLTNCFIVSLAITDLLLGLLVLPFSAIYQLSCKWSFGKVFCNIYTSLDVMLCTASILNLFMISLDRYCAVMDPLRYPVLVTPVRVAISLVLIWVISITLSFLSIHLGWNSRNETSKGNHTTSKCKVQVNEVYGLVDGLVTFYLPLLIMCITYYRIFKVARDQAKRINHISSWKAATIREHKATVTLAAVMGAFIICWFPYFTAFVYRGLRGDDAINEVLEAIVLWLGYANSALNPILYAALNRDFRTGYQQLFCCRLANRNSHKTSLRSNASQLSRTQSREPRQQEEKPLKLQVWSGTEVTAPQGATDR

Row | Compound | EC50 [1] | IC50 [1] | EC50 [2] | IC50 [2] | EC50 [3] | IC50 [3] | EC50 [4] | IC50 [4] | EC50 [5] | IC50 [5] | EC50 [6] | IC50 [6] | IC50 (Cyclooxygenase 2 (COX2)) | EC50 [7] | IC50 [7] | IC50 (Cyclooxygenase 1 (COX1))
1 | CNC(C)C(=O)c1c[nH]c2ccc(Br)cc12 (stereo not drawn) [BK-5Br-NM-AMT, 1-(5-bromo-1H-indol-3-yl)-2-(methylamino) propan-1-one hydrochloride] | > 10 µM | > 10 µM | > 10 µM | > 10 µM | > 10 µM | > 10 µM | > 10 µM | > 10 µM | > 10 µM | > 10 µM | > 10 µM | 0.673 µM | > 10 µM | > 10 µM | > 10 µM | > 10 µM
2 | CNC(C)C(=O)c1c[nH]c2ccc(Cl)cc12 (stereo not drawn) [BK-5Cl-NM-AMT, 1-(5-chloro-1H-indol-3-yl)-2-(methylamino) propan-1-one hydrochloride] | > 10 µM | > 10 µM | > 10 µM | > 10 µM | > 10 µM | > 10 µM | > 10 µM | > 10 µM | > 10 µM | > 10 µM | > 10 µM | 0.965 µM | > 10 µM | > 10 µM | > 10 µM | > 10 µM
3 | CNC(C)C(=O)c1c[nH]c2ccc(F)cc12 (stereo not drawn) [BK-5F-NM-AMT, 1-(5-Fluoro-1H-indol-3-yl)-2-(methylamino) propan-1-one hydrochloride] | > 10 µM | > 10 µM | > 10 µM | > 10 µM | > 10 µM | > 10 µM | > 10 µM | > 10 µM | > 10 µM | > 10 µM | > 10 µM | > 30 µM | > 10 µM | > 10 µM | > 10 µM | > 10 µM

— US20230257347A1 (priority 2020, published 2023)
